Earlier results, collected in patent US20070232672A1, “Pharmaceutical Composition And Method For Treating Neurodegenerative Disorders” (Myriad Genetics, Incorporated, priority 2004, published 2007).
Like-named read-outs stand apart in the source and are kept apart here.

Columns and labels:
Aβ42 [1] = details: transgenic mouse model, Koo et al.
[2] = 50 mg and 100 mg doses, human subjects, Lotsch et al.
Aβ42 [3] = details: CHO cells, Koo et al.
[4] = for efficacy for treating AD: clinical trial (Aisen et al., Reines et al.), rofecoxib at 25 mg daily
[5] = Scali et al.
[6] = patients having mild cognitive impairment

C[C@@H](C(=O)O)c1ccc(-c2ccccc2)c(F)c1 [(R)-2-(2-fluoro-4-biphenylyl)propionic acid]
Aβ42 lowering (Aβ42 [1]): lower Aβ42 | inhibition of COX activity (COX): negligibly inhibits COX activity | analgesic effect [2]: produced an analgesic effect | Aβ42 lowering (Aβ42 [3]): lower Aβ42

COc1ccc2cc([C@H](C)C(=O)O)ccc2c1 [Naproxen]
efficacy for treating AD [4]: failed to show efficacy

CC12CC3CC(C)(C1)CC(N)(C3)C2 [memantine]
efficacy in treating mild-to-moderate AD ([4]; mild-to-moderate AD): showed efficacy

CS(=O)(=O)c1ccc(C2=C(c3ccccc3)C(=O)OC2)cc1 [rofecoxib]
neuroprotection [5]: provides neuroprotection | efficacy for treating AD [4]: failed to show efficacy | prevention of the development of Alzheimer's disease ([6]; large prevention trial): failed to prevent the development of Alzheimer's disease | patients who developed AD ([6]; placebo 4.5%): 6.4%
